This note sets out measurements from PubChem BioAssay AID2060501 (Molecular Pharmacology Branch, DTP, NCI, 2025).
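Further: spheroids exposed to compounds for 7 days before readout; percent of vehicle DMSO control viability with 100% = untreated-like growth.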

The first assay deals with 282377-053-R-J1-PDC complex spheroids, viability. Briefly: Anticancer human tumor 282377-053-R-J1-PDC patient-derived colon adenocarcinoma cell line growth inhibition [GQUAD]. Particulars: second compound 0.316 µM; first compound 1 µM; active compounds read low. Put shortly: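 Multi-cell-type spheroids of tumor cells with HUVEC and mesenchymal stem cells, treated with drug combinations. Concentrations descend in half-log steps from near clinical Cmax, or from 10 microM where Cmax is unknown; viability read-out.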
`C=CCn1c(=O)c2cnc(Nc3ccc(N4CCN(C)CC4)cc3)nc2n1-c1cccc(C(C)(C)O)n1` + Cc1[nH]c2ccc(F)cc2c1-c1nc2c3cccnc3c3ncccc3c2[nH]1: the viability, T/C is 70%.

Take `COc1ncnc(C2CC2)c1-c1ncc2cnn(Cc3ccc(-c4nc(C(F)(F)F)cn4C(C)C)cc3)c2n1` + Cc1[nH]c2ccc(F)cc2c1-c1nc2c3cccnc3c3ncccc3c2[nH]1: the viability, T/C is 117%.

Turning to `CC1COCCN1c1cc(-c2ccnn2C)c2ccnc(-c3ccn[nH]3)c2n1` (stereo unspecified) + Cc1cnc(CNC(=O)c2c(=O)c3ccc(N4CCCN(C)CC4)nc3n3c2sc2ccccc23)cn1, the viability, T/C is 26.2%.

Consider `CC1COCCN1c1cc(C2(S(C)(=N)=O)CC2)nc(-c2ccnc3[nH]ccc23)n1` (stereo unspecified) + Cc1cnc(CNC(=O)c2c(=O)c3ccc(N4CCCN(C)CC4)nc3n3c2sc2ccccc23)cn1, for which the viability, T/C is 81%.

Consider `COc1ccc([C@@H](O)c2cc(-c3ncnc4cc(N5CCOCC5)ccc34)c(F)cc2Cl)nn1` + Cc1cnc(CNC(=O)c2c(=O)c3ccc(N4CCCN(C)CC4)nc3n3c2sc2ccccc23)cn1, for which the viability, T/C is 66.3%.

The same assay, now with this note: second compound 0.316 µM; first compound 3.16 µM; active compounds read low.
As for `C=CCn1c(=O)c2cnc(Nc3ccc(N4CCN(C)CC4)cc3)nc2n1-c1cccc(C(C)(C)O)n1` + Cc1[nH]c2ccc(F)cc2c1-c1nc2c3cccnc3c3ncccc3c2[nH]1, the viability, T/C is 51.4%.

Regarding `COc1ncnc(C2CC2)c1-c1ncc2cnn(Cc3ccc(-c4nc(C(F)(F)F)cn4C(C)C)cc3)c2n1` + Cc1[nH]c2ccc(F)cc2c1-c1nc2c3cccnc3c3ncccc3c2[nH]1, the viability, T/C was 96.3%.

As for `CC1COCCN1c1cc(-c2ccnn2C)c2ccnc(-c3ccn[nH]3)c2n1` (stereo unspecified) + Cc1cnc(CNC(=O)c2c(=O)c3ccc(N4CCCN(C)CC4)nc3n3c2sc2ccccc23)cn1, the viability, T/C is 21.5%.

Take `CC1COCCN1c1cc(C2(S(C)(=N)=O)CC2)nc(-c2ccnc3[nH]ccc23)n1` (stereo unspecified) + Cc1cnc(CNC(=O)c2c(=O)c3ccc(N4CCCN(C)CC4)nc3n3c2sc2ccccc23)cn1: the viability, T/C is 64.3%.

Consider `COc1ccc([C@@H](O)c2cc(-c3ncnc4cc(N5CCOCC5)ccc34)c(F)cc2Cl)nn1` + Cc1cnc(CNC(=O)c2c(=O)c3ccc(N4CCCN(C)CC4)nc3n3c2sc2ccccc23)cn1, for which the viability, T/C is 51.2%.

The same assay, now with this note: second compound 0.316 µM; first compound 10 µM; active compounds read low.
Turning to `C=CCn1c(=O)c2cnc(Nc3ccc(N4CCN(C)CC4)cc3)nc2n1-c1cccc(C(C)(C)O)n1` + Cc1[nH]c2ccc(F)cc2c1-c1nc2c3cccnc3c3ncccc3c2[nH]1, the viability, T/C is 12.8%.

For `COc1ncnc(C2CC2)c1-c1ncc2cnn(Cc3ccc(-c4nc(C(F)(F)F)cn4C(C)C)cc3)c2n1` + Cc1[nH]c2ccc(F)cc2c1-c1nc2c3cccnc3c3ncccc3c2[nH]1, the viability, T/C is 10.5%.

Take `CC1COCCN1c1cc(-c2ccnn2C)c2ccnc(-c3ccn[nH]3)c2n1` (stereo unspecified) + Cc1cnc(CNC(=O)c2c(=O)c3ccc(N4CCCN(C)CC4)nc3n3c2sc2ccccc23)cn1: the viability, T/C was 18.4%.

Consider `CC1COCCN1c1cc(C2(S(C)(=N)=O)CC2)nc(-c2ccnc3[nH]ccc23)n1` (stereo unspecified) + Cc1cnc(CNC(=O)c2c(=O)c3ccc(N4CCCN(C)CC4)nc3n3c2sc2ccccc23)cn1, for which the viability, T/C is 36.3%.

Take `COc1ccc([C@@H](O)c2cc(-c3ncnc4cc(N5CCOCC5)ccc34)c(F)cc2Cl)nn1` + Cc1cnc(CNC(=O)c2c(=O)c3ccc(N4CCCN(C)CC4)nc3n3c2sc2ccccc23)cn1: the viability, T/C was 36.5%.

The same assay, now with this note: second compound 1 µM; first compound 0.0316 µM; active compounds read low.
For `C=CCn1c(=O)c2cnc(Nc3ccc(N4CCN(C)CC4)cc3)nc2n1-c1cccc(C(C)(C)O)n1` + Cc1[nH]c2ccc(F)cc2c1-c1nc2c3cccnc3c3ncccc3c2[nH]1, the viability, T/C is 84.5%.

With `COc1ncnc(C2CC2)c1-c1ncc2cnn(Cc3ccc(-c4nc(C(F)(F)F)cn4C(C)C)cc3)c2n1` + Cc1[nH]c2ccc(F)cc2c1-c1nc2c3cccnc3c3ncccc3c2[nH]1, the viability, T/C is 97.1%.

Consider `CC1COCCN1c1cc(-c2ccnn2C)c2ccnc(-c3ccn[nH]3)c2n1` (stereo unspecified) + Cc1cnc(CNC(=O)c2c(=O)c3ccc(N4CCCN(C)CC4)nc3n3c2sc2ccccc23)cn1, for which the viability, T/C is 40.4%.

In the case of `CC1COCCN1c1cc(C2(S(C)(=N)=O)CC2)nc(-c2ccnc3[nH]ccc23)n1` (stereo unspecified) + Cc1cnc(CNC(=O)c2c(=O)c3ccc(N4CCCN(C)CC4)nc3n3c2sc2ccccc23)cn1, the viability, T/C was 68.4%.

As for `COc1ccc([C@@H](O)c2cc(-c3ncnc4cc(N5CCOCC5)ccc34)c(F)cc2Cl)nn1` + Cc1cnc(CNC(=O)c2c(=O)c3ccc(N4CCCN(C)CC4)nc3n3c2sc2ccccc23)cn1, the viability, T/C is 61.1%.

Still in this assay, the particulars now being: second compound 1 µM; first compound 0.1 µM; active compounds read low.
Regarding `C=CCn1c(=O)c2cnc(Nc3ccc(N4CCN(C)CC4)cc3)nc2n1-c1cccc(C(C)(C)O)n1` + Cc1[nH]c2ccc(F)cc2c1-c1nc2c3cccnc3c3ncccc3c2[nH]1, the viability, T/C was 71%.

For the compound `COc1ncnc(C2CC2)c1-c1ncc2cnn(Cc3ccc(-c4nc(C(F)(F)F)cn4C(C)C)cc3)c2n1` + Cc1[nH]c2ccc(F)cc2c1-c1nc2c3cccnc3c3ncccc3c2[nH]1, the viability, T/C is 97.2%.

As to `CC1COCCN1c1cc(-c2ccnn2C)c2ccnc(-c3ccn[nH]3)c2n1` (stereo unspecified) + Cc1cnc(CNC(=O)c2c(=O)c3ccc(N4CCCN(C)CC4)nc3n3c2sc2ccccc23)cn1, the viability, T/C was 32%.

As to `CC1COCCN1c1cc(C2(S(C)(=N)=O)CC2)nc(-c2ccnc3[nH]ccc23)n1` (stereo unspecified) + Cc1cnc(CNC(=O)c2c(=O)c3ccc(N4CCCN(C)CC4)nc3n3c2sc2ccccc23)cn1, the viability, T/C is 79.2%.

In the case of `COc1ccc([C@@H](O)c2cc(-c3ncnc4cc(N5CCOCC5)ccc34)c(F)cc2Cl)nn1` + Cc1cnc(CNC(=O)c2c(=O)c3ccc(N4CCCN(C)CC4)nc3n3c2sc2ccccc23)cn1, the viability, T/C is 52%.

Staying with this assay, now noted: second compound 1 µM; first compound 0.316 µM; active compounds read low.
For `C=CCn1c(=O)c2cnc(Nc3ccc(N4CCN(C)CC4)cc3)nc2n1-c1cccc(C(C)(C)O)n1` + Cc1[nH]c2ccc(F)cc2c1-c1nc2c3cccnc3c3ncccc3c2[nH]1, the viability, T/C is 72.6%.
